Patent US20230113398A1, “INEXPENSIVE METAL-FREE ORGANIC REDOX FLOW BATTERY (ORBAT) FOR GRID-SCALE STORAGE” (UNIVERSITY OF SOUTHERN CALIFORNIA, priority 2013, published 2023)
≈ marks a conversion by molar mass, not a printed value.

Legend:
[1] = Charge/discharge cycling of full ORBAT flow cells; settings: 25 cm^2 flow cell, 0.2 M solutions, 1 M sulfuric acid, at least 12 cycles
Text: A flow cell was constructed using fuel cell hardware that has graphite end plates (Electrochem Inc.) and an electrode active area of 25 cm^2. The reactant was circulated using peristaltic pumps (Masterflex) at a flow rate of approximately 0.5-1.0 liter min^-1. Membrane electrode assemblies (MEA) needed for the cell were fabricated in house using procedures similar to those previously reported for direct methanol fuel cells. (G. K. S. Prakash, M. C. Smart, Q. J. Wang, A. Atti, V. Pleynet, B. Yang, K. McGrath, G. A. Olah, S. R. Narayanan, W. Chun, T. Valdez, S. Surampudi, J. Fluorine Chemistry, 125, 1217 (2004); the entire disclosure of which is hereby incorporated by reference). Specifically, two sheets of carbon paper (Toray 030- non-teflonized) were coated with an ink containing 0.1 g of Vulcan XC-72 carbon black and 0.3 g of NAFION®. The coated electrodes were hot pressed with a NAFION® 117 membrane to form a MEA. All full cell experiments were carried out at 23° C. Two glass containers served as reservoirs for the solutions of the redox couples. An argon flow was maintained above these solutions to avoid reaction of the redox couples with oxygen. The current-voltage characteristics of the cells were measured at various states of charge. Charge/discharge studies were carried out under constant current conditions. […]

[2] = Cyclic voltammetry in 1 M potassium hydroxide; type: physicochemical
[3] = Rotating disk electrode and cyclic voltammetry on glassy carbon, 1 mM compound in 1 M sulfuric acid; type: physicochemical
Procedure: Measurement of kinetic parameters and diffusion coefficients was conducted in a three-electrode cell consisting of a rotating glassy carbon disk working electrode, a platinum wire counter electrode, and a mercury/mercuric sulfate reference electrode (E° = +0.65 V). […] The solutions were de-aerated and kept under a blanket of argon gas throughout all the experiments. All measurements were conducted in the potentiodynamic mode (Versastat 300 potentiostat) at a scan rate of 5 mV s^-1 over a range of rotation rates (500 rpm to 3000 rpm). Impedance measurements were also made at each rotation rate. Cyclic voltammetry was conducted on a static glassy carbon electrode at a scan rate of 50 mV s^-1.
(§1) Where n is the number of electrons transferred, F, the Faraday constant, A, electrode area, Do, the diffusion coefficient, v, the kinematic viscosity of the solution and C*, the bulk concentration of the reactants. For n = 2, an active electrode area of 0.1925 cm^2, and a kinematic viscosity of the electrolyte of 0.01 cm^2 s^-1, we were able to evalulate the diffusion coefficient from the slope of the straight line plots in FIG. 11D.
(§2) To determine the kinetic parameters for the charge-transfer process, namely the rate constant and the apparent transfer coeffcient, the logarithm of the kinetic current (after correction for mass-transport losses) was plotted against the observed overpotentials greater than 100 mV, where the Tafel equation is applicable (Eq. 4 and FIG. 11E).
(§3) Where I is the current, Ilim is the limiting current, Iex is the exchange current density, Co and CR are the concentration of the oxidized and reduced species at the surface of the electrode, Co* and CR* are the bulk concentrations of the oxidized and reduced species, α is the transfer coefficient, n is the number of electrons transferred, F is the Faraday constant, E-Erev is the overpotential, R is the gas constant, and T is the temperature. The rate constant, ko , was obtained from the exchange current density (Eq. 5).
as §1, with “plots.” for “plots in FIG. 11D.”
as §2, with “equation derived from the Butler-Volmer Equation” for “equation”, “: […]” for “(Eq. 4 and FIG. 11E).”
as §3, with “using the relationship” for “(Eq. 5).”

solubility (Solubility; Solubility, Table 5): 500 mM (≈ 184 mg/mL)
solubility (Solubility; water, aqueous solubility limit, aqueous): ~500 mM (≈ 184 mg/mL)
reversible peak potential vs. MMO [2]: about -0.35 V
Standard Reduction Potentials: E°(formal) Measured ([3]; 1 M sulfuric acid): 0.19
kinetic reversibility from cyclic voltammograms ([3]; 1 M sulfuric acid, glassy carbon): less kinetically reversible than AQS
Diffusion Coefficient, (cm^2 s^-1) ([3]; Table 5, 1 M sulfuric acid, Levich plot): 3.40E-6 cm^2 s^-1
E½ vs. MSE, Volt ([3]; Table 5, MSE E°=+0.65 V, 1 M sulfuric acid): -0.60 Volt
Transfer Coefficient, an ([3]; Table 5, Tafel analysis): 0.426
Exchange Current Density, (A cm^-2) ([3]; Table 5, glassy carbon RDE, 1 M sulfuric acid): 2.97E-6 A cm^-2
Rate Constant, k° ([3]; Table 5, obtained from exchange current density): 0.000152 cm/s
Diffusion Coefficient (cm2/sec) ([3]; Table 7): 4.04E-6 cm2/sec
Exchange Current density (A/cm^2) ([3]; Table 7): 1.81E-6 A/cm^2
E½ vs. MSE, Volt ([3]; Table 7, 1 M sulfuric acid): -0.58 Volt
Standard Reduction Potentials: Experimental (E½ values) vs. NHE ([3]; vs. NHE, 1 M sulfuric acid): 0.05
Compound: O=C1c2ccc(S(=O)(=O)O)cc2C(=O)c2ccc(S(=O)(=O)O)cc21 [Anthraquinone 2,6-disulfonic acid, anthraquinone-2,6-disulfonic acid]
charge-discharge cycling stability (capacity change) [1]: charge-discharge cycling stability similar to AQS
